# PMC8151276, “An Integrated Approach toward NanoBRET Tracers for Analysis of GPCR Ligand Engagement” (Molecules, 2021)
# Columns and labels:
# Assay type in all cases: binding
# [1] = biological target: T1, ADORA1 (Homo sapiens, UniProt P30542); assay: NanoBRET screen HiBiT-ADORA1 in HEK293
# T1 construct: purchased Promega (in-house HiBiT-GPCR construct library, NanoBRET)
# T1 sequence (P30542 1-326): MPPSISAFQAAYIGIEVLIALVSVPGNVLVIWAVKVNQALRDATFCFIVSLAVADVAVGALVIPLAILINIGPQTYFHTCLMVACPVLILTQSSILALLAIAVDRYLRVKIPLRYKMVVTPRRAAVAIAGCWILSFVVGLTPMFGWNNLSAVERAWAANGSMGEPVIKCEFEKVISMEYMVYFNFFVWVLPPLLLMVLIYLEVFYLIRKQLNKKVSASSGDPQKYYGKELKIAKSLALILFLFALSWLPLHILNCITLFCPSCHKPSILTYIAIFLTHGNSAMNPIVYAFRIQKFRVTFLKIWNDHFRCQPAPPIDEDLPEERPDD
# Protocol: (§1) Each tracer candidate was screened across the entire library of HiBiT-GPCR constructs using NanoBRET as the detection modality. As depicted in Figure 4A, the specificity of interactions was evaluated through decrease in BRET due to competitive displacement of a bound tracer by excess parental compound. Each tracer was analyzed for binding to each HiBiT-GPCR fusion in the absence and in the presence of competing parental compound. Briefly, HEK293 cells were transfected with HiBiT-GPCR constructs diluted into promoterless DNA to reduce expression and maximize translocation to the cell surface. Each tracer candidate was then screened at concentrations of 1 μM and 0.1 μM across cells expressing these fusions. Cells were treated for 1.5 h with tracer either alone or in the presence of 20 μM competing parental compound (i.e., control). BRET was measured upon addition of purified LgBiT and subsequent complementation with HiBiT genetically fused to a GPCR. The specificity of interactions was assessed through a decrease in BRET signal due to competitive displacement of the bound tracer. To further gauge the robustness of these interactions, the fold response over the control (i.e., BRETtracer/BRETcontrol) was calculated. We chose a 1.5-fold response, which translates to ≥7-fold signal over noise as the minimal threshold required to score an interaction as positive. […]. Below we highlight the screening results obtained for our exemplary fluorescent tracers based on Clozapine, Amitriptyline and AZD1283.
# (§2) HiBiT-GPCR DNA constructs were diluted in 10 mM Tris pH 8 to a final concentration of 0.01 μg/μL, arrayed in 96-well plates and stored at −20 °C. For transfection, HEK293 cells were suspended in Opti-MEM (without phenol red) supplemented with 2% fetal bovine serum (Seradigm) and 100 units/mL penicillin–streptomycin (Gibco) at a final concentration of 220,000 cells/mL and dispensed into white 96-well plates at 90 μL/well. Subsequent transfections and screens were carried using an Agilent Bravo Automated Liquid Handling Platform. First, the 96-well HiBiT DNA arrays were diluted 25-fold in Opti-MEM (without serum or phenol red) to a final concentration of 0.0004 μg/μL and 20 μL of the diluted DNAs were transferred into new 96-well plates. Next, promoterless carrier DNA (1 μg/μL) was diluted 25-fold (0.04 μg/μL) and then dispensed into the diluted arrays at 20 μL/well. Following brief mixing, Viafect transfection reagent (Promega) diluted 16-fold into Opti-MEM was dispensed into the plates at 40 μL/well. After mixing by pipetting, plates were incubated for 10 min on the pipetting station deck. The DNA-transfection reagent complexes were then added to plates containing cells. To facilitate the screen, 10 μL of DNA-transfection reagent complexes were added in duplicates to the top 4 and bottom 4 rows, resulting in two identical 48-well arrays per plate. Plates with transfected cells were incubated for 18–20 h at 37 °C/5% CO2. A screen of each tracer across the entire library using two different concentrations requires duplicate plates of transfected cells. Depending on the number of tracers being screened, transfections can be scaled up using the same ratios. The next day, for each tracer, four 20× screening solutions in tracer dilution buffer (Promega) were prepared: two duplicates at final concentration of 20 μM and two duplicates at a final concentration of 2 μM. A competing unmodified compound was added to one of each duplicate at a final concentration of 400 μM. The four resulting solutions were diluted 4-fold in Opti-MEM without serum or phenol red to generate 5× solutions (5 µM and 0.5 µM tracer +/− 100 μM competing compound). To screen the library, a BioTek MultiFlo FX liquid dispenser was used to dispense 22.5 µL of tracer solution to the top 4 rows and 22.5 µL tracer + competing compound solution to the 4 bottom rows. Plates were briefly mixed on an orbital shaker and incubated for 1.5 h at room temperature. […]
# [2] = biological target: T2, CCR1 (Homo sapiens, UniProt P32246); assay: NanoBRET screen HiBiT-CCR1 in HEK293
# T2 construct: purchased Promega (in-house HiBiT-GPCR construct library, NanoBRET)
# T2 sequence (P32246 1-355): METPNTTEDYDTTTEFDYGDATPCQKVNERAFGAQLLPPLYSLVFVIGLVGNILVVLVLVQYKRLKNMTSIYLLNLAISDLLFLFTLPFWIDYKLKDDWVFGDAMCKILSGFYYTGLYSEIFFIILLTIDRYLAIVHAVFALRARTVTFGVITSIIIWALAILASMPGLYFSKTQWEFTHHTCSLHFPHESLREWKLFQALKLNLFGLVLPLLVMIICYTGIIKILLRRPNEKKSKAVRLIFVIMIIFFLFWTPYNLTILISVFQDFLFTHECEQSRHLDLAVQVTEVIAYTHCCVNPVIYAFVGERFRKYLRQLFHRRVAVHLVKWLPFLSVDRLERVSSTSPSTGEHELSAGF
# Protocol: as §1, §2
# [3] = biological target: T3, CCR3 (Homo sapiens, UniProt P51677); assay: NanoBRET screen HiBiT-CCR3 in HEK293
# T3 construct: purchased Promega (in-house HiBiT-GPCR construct library, NanoBRET)
# T3 sequence (P51677 1-355): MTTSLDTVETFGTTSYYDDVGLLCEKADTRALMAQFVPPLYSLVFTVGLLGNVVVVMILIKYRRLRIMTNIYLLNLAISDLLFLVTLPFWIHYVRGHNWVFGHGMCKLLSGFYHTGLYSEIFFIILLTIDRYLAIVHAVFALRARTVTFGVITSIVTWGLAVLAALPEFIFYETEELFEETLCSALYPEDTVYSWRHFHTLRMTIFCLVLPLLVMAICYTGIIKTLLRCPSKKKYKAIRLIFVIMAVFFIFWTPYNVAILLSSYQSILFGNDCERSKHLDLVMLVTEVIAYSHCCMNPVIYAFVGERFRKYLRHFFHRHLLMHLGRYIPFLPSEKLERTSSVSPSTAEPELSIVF
# Protocol: as §1, §2
# [4] = biological target: T4, CCR5 (Homo sapiens, UniProt P51681); assay: NanoBRET screen HiBiT-CCR5 in HEK293
# T4 construct: purchased Promega (in-house HiBiT-GPCR construct library, NanoBRET)
# T4 sequence (P51681 whole entry): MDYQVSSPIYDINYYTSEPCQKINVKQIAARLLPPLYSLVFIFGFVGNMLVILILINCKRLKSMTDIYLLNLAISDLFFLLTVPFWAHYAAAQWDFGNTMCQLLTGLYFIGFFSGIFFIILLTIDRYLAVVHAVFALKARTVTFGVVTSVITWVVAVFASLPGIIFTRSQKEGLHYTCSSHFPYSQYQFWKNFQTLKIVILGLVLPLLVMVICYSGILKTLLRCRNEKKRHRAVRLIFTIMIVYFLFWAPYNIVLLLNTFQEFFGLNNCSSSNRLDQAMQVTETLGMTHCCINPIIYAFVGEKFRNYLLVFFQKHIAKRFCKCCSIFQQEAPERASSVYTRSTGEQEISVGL
# Protocol: as §1, §2
# [5] = biological target: T5, PDGFRB (Homo sapiens, UniProt P09619); assay: NanoBRET screen HiBiT-PDGFRB in HEK293
# T5 construct: purchased Promega (in-house HiBiT-GPCR construct library, NanoBRET)
# T5 sequence (P09619 33-1106): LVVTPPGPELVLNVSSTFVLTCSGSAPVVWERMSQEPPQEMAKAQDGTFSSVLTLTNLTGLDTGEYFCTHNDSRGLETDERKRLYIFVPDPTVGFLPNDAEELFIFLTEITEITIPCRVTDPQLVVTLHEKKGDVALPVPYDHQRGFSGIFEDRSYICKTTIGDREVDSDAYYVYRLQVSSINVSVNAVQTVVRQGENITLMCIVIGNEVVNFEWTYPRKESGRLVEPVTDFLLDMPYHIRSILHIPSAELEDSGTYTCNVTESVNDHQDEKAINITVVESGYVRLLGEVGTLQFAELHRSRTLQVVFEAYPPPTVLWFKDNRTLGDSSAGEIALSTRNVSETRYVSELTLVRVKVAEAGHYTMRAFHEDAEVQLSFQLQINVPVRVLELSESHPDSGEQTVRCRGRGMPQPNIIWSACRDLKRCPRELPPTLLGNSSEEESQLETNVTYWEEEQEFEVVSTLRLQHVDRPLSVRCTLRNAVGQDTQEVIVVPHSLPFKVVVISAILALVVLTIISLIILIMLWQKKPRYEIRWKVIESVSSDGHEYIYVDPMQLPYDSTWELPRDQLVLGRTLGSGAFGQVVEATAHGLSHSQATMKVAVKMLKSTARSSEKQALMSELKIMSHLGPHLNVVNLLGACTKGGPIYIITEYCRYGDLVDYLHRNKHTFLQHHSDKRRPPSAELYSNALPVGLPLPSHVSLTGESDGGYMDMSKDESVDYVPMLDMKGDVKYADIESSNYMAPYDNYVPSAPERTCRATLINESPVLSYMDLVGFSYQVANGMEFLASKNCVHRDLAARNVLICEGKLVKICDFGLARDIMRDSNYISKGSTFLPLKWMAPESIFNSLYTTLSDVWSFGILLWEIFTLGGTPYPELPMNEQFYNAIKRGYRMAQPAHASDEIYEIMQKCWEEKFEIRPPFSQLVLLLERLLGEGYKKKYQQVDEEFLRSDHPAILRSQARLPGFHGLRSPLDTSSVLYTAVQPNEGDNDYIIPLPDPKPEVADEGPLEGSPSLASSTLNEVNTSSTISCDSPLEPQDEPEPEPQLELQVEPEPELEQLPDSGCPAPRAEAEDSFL
# Protocol: as §1, §2
# [6] = tracer at 1μM, listed as amitriptyline-b-2-NB590
# [7] = tracer at 0.1μM, listed as amitriptyline-b-2-NB590
SMILES,"NanoBRET Fold Response ([1]; ADORA1, tracer 0.1μM)","NanoBRET Fold Response ([1]; ADORA1, tracer 1μM)","NanoBRET Fold Response ([2]; CCR1, tracer 0.1μM)","NanoBRET Fold Response ([2]; CCR1, tracer 1μM)","NanoBRET Fold Response ([3]; CCR3, tracer 0.1μM)","NanoBRET Fold Response ([3]; CCR3, tracer 1μM)","NanoBRET Fold Response ([4]; CCR5, tracer 0.1μM)","NanoBRET Fold Response ([4]; CCR5, tracer 1μM)","NanoBRET Fold Response ([5]; PDGFRB, tracer 0.1μM)","NanoBRET Fold Response ([5]; PDGFRB, tracer 1μM)",NanoBRET Fold Response ([2]; tracer at 1μM),further results
COc1ccccc1N1CCN(CCCCN2C(=O)c3ccc(CNC(=O)CCOCCNC(=O)c4ccc(CNC(=O)CCc5ccc6n5[B-](F)(F)[N+]5=C(c7ccc[nH]7)C=CC5=C6)cc4)cc3C2=O)CC1 [NAN-190-3-NB590],1.07,0.89,1.04,0.89,1.02,1.02,0.95,1.03,0.93,1.07,–,–
N#CN=C(NCCCOc1cccc(CN2CCCCC2)c1)NCCNC(=O)CCOCCOCCOCCOCCNC(=O)CCc1ccc2n1[B-](F)(F)[N+]1=C(c3ccc[nH]3)C=CC1=C2 [Aminopotentidine-2-NB590],1.04,1.01,0.95,1.03,0.95,0.89,1.00,1.11,0.90,1.01,–,–
CN(C)CCC=C1c2ccccc2CCc2ccc(C(=O)NCCNC(=O)CCOCCOCCOCCOCCNC(=O)CCc3ccc4n3[B-](F)(F)[N+]3=C(c5ccc[nH]5)C=CC3=C4)cc21 [Amitriptyline-b-2-NB590],–,–,–,–,–,–,–,–,–,–,0.97,"NanoBRET Fold Response [1, 6]: 1.01; NanoBRET Fold Response [2, 7]: 0.84; NanoBRET Fold Response ([3]; tracer at 0.1μM): 0.90; NanoBRET Fold Response [3, 6]: 1.27; NanoBRET Fold Response [4, 7]: 1.14; NanoBRET Fold Response [4, 6]: 1.07; NanoBRET Fold Response ([5]; tracer at 0.1μM): 0.97; NanoBRET Fold Response [5, 6]: 0.99"
COc1ccccc1N1CCN(CCCCN2C(=O)c3ccc(CNC(=O)CCOCCOCCOCCOCCNC(=O)CCc4ccc5n4[B-](F)(F)[N+]4=C(c6ccc[nH]6)C=CC4=C5)cc3C2=O)CC1 [NAN-190-2-NB590],1.10,0.92,1.01,1.04,1.08,1.11,0.95,1.03,0.99,1.00,–,–
O=C(CCOCCOCCOCCOCCNC(=O)CCc1ccc2n1[B-](F)(F)[N+]1=C(c3ccc[nH]3)C=CC1=C2)NCCCN1CCN(C2=Nc3ccccc3Oc3ccc(Cl)cc32)CC1 [Loxapine-a-2-NB590],1.13,1.04,1.00,0.99,1.02,1.02,1.00,1.34,1.12,1.00,–,–
CN(CCC=C1c2ccccc2CCc2ccccc21)C(=O)CCOCCOCCOCCOCCNC(=O)CCc1ccc2n1[B-](F)(F)[N+]1=C(c3ccc[nH]3)C=CC1=C2 [Amitriptyline-e-2-NB590],–,–,–,–,–,–,–,–,–,–,0.99,NanoBRET Fold Response ([1]; tracer at 1μM): 1.08; NanoBRET Fold Response ([3]; tracer at 1μM): 0.86; NanoBRET Fold Response ([4]; tracer at 1μM): 0.97; NanoBRET Fold Response ([5]; tracer at 1μM): 1.04
CCCn1c(=O)c2[nH]c(-c3ccc(OCC(=O)NCCNC(=O)CCOCCNC(=O)c4ccc(CNC(=O)CCc5ccc6n5[B-](F)(F)[N+]5=C(c7ccc[nH]7)C=CC5=C6)cc4)cc3)nc2n(CCC)c1=O [XAC-3-NB590],10.95,7.99,0.83,1.09,1.28,0.79,0.83,0.86,0.76,0.79,–,–
CN(C)CCC=C1c2ccccc2CCc2ccc(C(=O)NCCNC(=O)CCOCCOCCOCCOCCNC(=O)CCc3ccc4n3[B-](F)(F)[N+]3=C(c5ccc[nH]5)C=CC3=C4)cc21 [Amitriptyline-a-2-NB590],–,–,–,–,–,–,–,–,–,–,1.07,NanoBRET Fold Response ([1]; tracer at 0.1μM): 1.11; NanoBRET Fold Response ([1]; tracer at 1μM): 1.02; NanoBRET Fold Response ([2]; tracer at 0.1μM): 0.99; NanoBRET Fold Response ([3]; tracer at 0.1μM): 1.02; NanoBRET Fold Response ([3]; tracer at 1μM): 0.95; NanoBRET Fold Response ([4]; tracer at 0.1μM): 0.99; NanoBRET Fold Response ([4]; tracer at 1μM): 1.01; NanoBRET Fold Response ([5]; tracer at 0.1μM): 1.17; NanoBRET Fold Response ([5]; tracer at 1μM): 1.06
